Test results from patent publication US10654814B2, “Bicyclic hydroxamic acids useful as inhibitors of mammalian histone deacetylase activity” (KANCERA AB, priority 2015, dated 2020).
Where two headings read alike, the source gives them in different places.

Experiments:
[1] = test system: multiple myeloma cell line OPM-2; assay: Annexin V apoptosis assay (flow cytometry), OPM-2; format: cell-based; settings: 72 hours, relative to 0.2% DMSO
Excerpt: (§1) Method for Measurement of Apoptosis
(§2) The Annexin A5 (or Annexin V) affinity assay provides a method to quantify the number of cells undergoing apoptosis. The assay uses the protein annexin A5 conjugated to fluorescein (FITC Annexin V) and the fluorescent dye propidium iodide (PI) to label early apoptotic (annexin V positive, PI negative) and necrotic/dead cells (annexin V positive, PI positive) quantified by flow cytometry. The annexin A5 protein binds to membrane surfaces containing negatively charged phoshpolipids (phosphatidylserine) which are exposed by apoptotic and dead cells, but not by normal cells. PI binds to nucleic acids in cells which have completely lost the integrity of their plasma membrane, i.e. necrotic cells.
(§3) Standard Annexin V assay protocol was followed (see e.g. http://www.biolegend.com/pop_pdf.php?id=5161 and application references therein). 10,000 cells of each cell line were cultured in 400 μl of medium in 48 well plates. Compounds from 10 mM DMSO stock solutions were added to cells (DMSO content was 0.2%) and incubated for 48 or 72 hours followed by addition of FITC-Annexin V (BioLegend) and PI staining solution (BD Biosciences). The cells were analyzed by flow cytometry, at least 4,000 single cells were analyzed. Compounds were tested either individually at four different concentrations (1, 2.5, 5 and 10 μM) or in combination with 1 μM dexamethasone.
(§4) Annexin V assay results for one compound of the invention (Example 1) with and without 1 μM dexamethasone for the multiple myeloma cell lines OPM-2 and U266 are given in Table 6. In Table 6, the % apoptosis values with compound(s) present are relative to the absence of compounds (only 0.2% DMSO present).

[2] = test system: multiple myeloma cell line U266; assay: Annexin V apoptosis assay (flow cytometry), U266; format: cell-based; settings: 72 hours, relative to 0.2% DMSO
Excerpt: as §1, §2, §3, §4

PaCa2 (pancreatic) cells = assay: CellTiter-Blue cell viability assay, PaCa2; format: cell-based; settings: PaCa-2; 72 hours of treatment
Description: (§5) Method for Measurement of Cell Viability
(§6) The CellTiter-Blue® Cell Viability Assay (Promega) provides a homogeneous, fluorometric method for estimating the number of viable cells present in multi-well plates. The assay uses the indicator dye resazurin to measure the metabolic capacity of cells. Viable cells retain the ability to reduce resazurin into resorufin, which is highly fluorescent.
(§7) Stock solutions (10 mM in DMSO) of compounds were serially diluted 1:2 in 11 concentrations. 50 nL/well (10 mM compound stock in DMSO) was acoustically dispensed in 384-well assay plates with an acoustic dispenser (EDC Biosystems ATS-100AV). Final starting concentration in the assay was 20 μM (0.2% DMSO) for test compounds. The following cell-lines (and origin) have been primarily used: PaCa2 (pancreatic), U266 (multiple myeloma), AMO-1 (plasmacytoma), and MDA-MB-231 (breast adenocarcinoma). PBMCs (peripheral blood mononuclear cells) from healthy donors were used as control cells. Cells were seeded in assay plates (384-well black/clear, Greiner #781091) pre-dispensed with compounds, 25 μL/well, and cultured for 72 hours. After 72 hours, Celltiter Blue reagent (Promega # G8081) was diluted 1:10 with PBS and then added to wells (5 μL/well). The plates were incubated for 2 hours following addition of reagent. The plates were read in an EnVision fluorescence reader (PerkinElmer) with Ex544 nm/Em590 nm. Results were calculated as % cell viability compared to background (cells treated with 0.2% DMSO).

HDAC1 = HDAC1 (Homo sapiens (Human), UniProt Q13547); assay: HDAC1 in vitro enzymatic assay (fluorescence); format: biochemical; settings: Table 4 selectivity profiling
Chain of HDAC1 (Q13547 whole entry): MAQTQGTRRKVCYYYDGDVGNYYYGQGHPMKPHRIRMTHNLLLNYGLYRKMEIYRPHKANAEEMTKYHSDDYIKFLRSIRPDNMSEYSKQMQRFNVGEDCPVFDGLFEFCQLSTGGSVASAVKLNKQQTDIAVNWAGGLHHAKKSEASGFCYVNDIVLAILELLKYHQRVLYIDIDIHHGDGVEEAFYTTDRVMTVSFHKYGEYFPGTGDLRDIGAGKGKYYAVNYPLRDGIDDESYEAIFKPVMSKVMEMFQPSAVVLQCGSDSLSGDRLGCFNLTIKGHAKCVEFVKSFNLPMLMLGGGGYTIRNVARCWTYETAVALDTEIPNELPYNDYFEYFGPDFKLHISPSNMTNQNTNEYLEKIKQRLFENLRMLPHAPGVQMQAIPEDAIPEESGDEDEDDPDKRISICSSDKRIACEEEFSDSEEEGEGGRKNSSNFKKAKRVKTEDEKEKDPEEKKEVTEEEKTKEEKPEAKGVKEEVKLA
Description: (§8) Biological Tests Method for Measurement of Enzymatic Activity of HDACs Materials & Methods
(§9) All Examples were tested in HDAC1,2,3,6 and 8 in vitro enzymatic assays. The assay principle is well known (Hauser et al. 2009, Bradner et al. 2010) and all necessary reagents like enzymes, substrates, developer and reference compounds are commercially available (see e.g. BPS Biosciences http://www.bpsbioscience.com/). Stock solutions (10 mM in DMSO) of compounds were serially diluted 1:3 in 11 concentrations with a top concentration of 200 μM for HDAC1,2,3 and 2 μM for HDAC6 and HDAC8. The enzymatic reactions were conducted in a mixture containing assay buffer, bovine serum albumin, HDAC substrate, and a test compound. After enzymatic reaction, developer was added and after an additional incubation time, fluorescence intensity was measured at an excitation wavelength of 360 nm and an emission wavelength of 460 nm. All experiments were performed in duplicate.

[3] = test system: PBMCs (peripheral blood mononuclear cells) from healthy donors; assay: CellTiter-Blue cell viability assay, healthy PBMC; format: cell-based; settings: 72 hours of treatment
Description: as §5, §6, §7

HDAC2 = HDAC2 (Homo sapiens (Human), UniProt Q92769); assay: HDAC2 in vitro enzymatic assay (fluorescence); format: biochemical; settings: Table 4 selectivity profiling
Chain of HDAC2 (Q92769 whole entry): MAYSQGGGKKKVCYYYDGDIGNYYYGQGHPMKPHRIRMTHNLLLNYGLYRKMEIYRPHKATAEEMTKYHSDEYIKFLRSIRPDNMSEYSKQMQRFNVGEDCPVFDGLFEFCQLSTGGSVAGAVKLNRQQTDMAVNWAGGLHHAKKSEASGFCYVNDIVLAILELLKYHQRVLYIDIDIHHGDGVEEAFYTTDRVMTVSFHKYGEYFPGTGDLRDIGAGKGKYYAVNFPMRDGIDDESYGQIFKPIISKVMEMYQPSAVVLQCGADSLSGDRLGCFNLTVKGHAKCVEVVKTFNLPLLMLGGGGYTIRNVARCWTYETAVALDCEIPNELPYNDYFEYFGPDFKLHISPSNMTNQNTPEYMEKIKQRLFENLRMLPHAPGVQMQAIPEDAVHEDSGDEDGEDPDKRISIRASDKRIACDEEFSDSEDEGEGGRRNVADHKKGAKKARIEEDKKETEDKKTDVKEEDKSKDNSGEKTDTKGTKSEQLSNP
Description: as §8, §9

HDAC6 = HDAC6 (Homo sapiens (Human), UniProt Q9UBN7); assay: HDAC6 in vitro enzymatic assay (fluorescence); format: biochemical
Chain of HDAC6 (Q9UBN7 whole entry): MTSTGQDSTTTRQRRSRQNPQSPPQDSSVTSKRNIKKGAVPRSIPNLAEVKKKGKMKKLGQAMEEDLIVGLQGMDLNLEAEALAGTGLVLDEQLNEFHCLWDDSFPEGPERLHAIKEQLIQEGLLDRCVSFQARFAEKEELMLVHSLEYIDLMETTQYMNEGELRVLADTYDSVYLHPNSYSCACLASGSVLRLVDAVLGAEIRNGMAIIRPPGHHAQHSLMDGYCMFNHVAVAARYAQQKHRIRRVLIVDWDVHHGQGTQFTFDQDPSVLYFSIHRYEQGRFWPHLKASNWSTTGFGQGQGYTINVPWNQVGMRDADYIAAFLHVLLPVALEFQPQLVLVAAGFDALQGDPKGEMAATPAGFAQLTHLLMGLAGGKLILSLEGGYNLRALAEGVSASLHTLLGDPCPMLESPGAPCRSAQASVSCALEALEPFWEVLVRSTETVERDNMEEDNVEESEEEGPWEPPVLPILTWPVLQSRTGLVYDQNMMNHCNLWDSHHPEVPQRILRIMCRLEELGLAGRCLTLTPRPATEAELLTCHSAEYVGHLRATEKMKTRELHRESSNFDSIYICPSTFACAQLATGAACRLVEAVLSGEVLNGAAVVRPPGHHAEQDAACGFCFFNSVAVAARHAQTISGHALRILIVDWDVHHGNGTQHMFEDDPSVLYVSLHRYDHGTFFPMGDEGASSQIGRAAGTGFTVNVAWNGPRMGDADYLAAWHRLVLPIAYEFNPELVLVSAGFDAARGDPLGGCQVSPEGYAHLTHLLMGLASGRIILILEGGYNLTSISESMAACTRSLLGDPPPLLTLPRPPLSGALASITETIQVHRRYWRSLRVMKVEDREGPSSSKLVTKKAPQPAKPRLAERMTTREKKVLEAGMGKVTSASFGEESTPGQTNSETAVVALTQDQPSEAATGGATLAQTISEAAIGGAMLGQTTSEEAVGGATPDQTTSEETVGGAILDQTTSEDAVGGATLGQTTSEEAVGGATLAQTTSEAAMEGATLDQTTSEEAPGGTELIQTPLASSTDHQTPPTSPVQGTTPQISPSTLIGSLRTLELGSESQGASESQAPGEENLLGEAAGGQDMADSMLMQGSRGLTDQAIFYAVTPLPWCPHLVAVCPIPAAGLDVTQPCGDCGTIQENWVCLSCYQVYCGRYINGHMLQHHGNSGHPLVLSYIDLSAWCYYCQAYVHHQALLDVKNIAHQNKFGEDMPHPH
Procedure, shortened: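 Fluorogenic HDAC substrate reactions contained assay buffer, BSA and compound, followed by developer. Fluorescence was read at ex 360/em 460 nm. Compounds were tested as 11-point 1:3 dilutions from a top of 200 μM for HDAC1, 2 and 3, and from 2 μM for HDAC6, in duplicate.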

HDAC8 = HDAC8 (Homo sapiens (Human), UniProt Q9BY41); assay: HDAC8 in vitro enzymatic assay (fluorescence); format: biochemical; settings: Table 4 selectivity profiling
Chain of HDAC8 (Q9BY41 whole entry): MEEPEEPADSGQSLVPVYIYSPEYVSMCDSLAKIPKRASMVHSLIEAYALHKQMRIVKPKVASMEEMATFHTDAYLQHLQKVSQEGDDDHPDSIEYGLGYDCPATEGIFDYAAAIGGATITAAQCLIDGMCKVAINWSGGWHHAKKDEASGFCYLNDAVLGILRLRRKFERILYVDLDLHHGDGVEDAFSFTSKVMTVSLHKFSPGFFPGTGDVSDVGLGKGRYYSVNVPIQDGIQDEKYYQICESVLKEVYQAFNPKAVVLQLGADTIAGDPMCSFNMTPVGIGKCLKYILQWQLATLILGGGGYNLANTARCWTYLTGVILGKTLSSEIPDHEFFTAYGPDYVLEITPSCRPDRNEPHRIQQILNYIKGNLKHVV
Description: as §8, §9

HDAC3 = HDAC3 (Homo sapiens (Human), UniProt O15379); assay: HDAC3 in vitro enzymatic assay (fluorescence); format: biochemical; settings: Table 4 selectivity profiling
Chain of HDAC3 (O15379 whole entry): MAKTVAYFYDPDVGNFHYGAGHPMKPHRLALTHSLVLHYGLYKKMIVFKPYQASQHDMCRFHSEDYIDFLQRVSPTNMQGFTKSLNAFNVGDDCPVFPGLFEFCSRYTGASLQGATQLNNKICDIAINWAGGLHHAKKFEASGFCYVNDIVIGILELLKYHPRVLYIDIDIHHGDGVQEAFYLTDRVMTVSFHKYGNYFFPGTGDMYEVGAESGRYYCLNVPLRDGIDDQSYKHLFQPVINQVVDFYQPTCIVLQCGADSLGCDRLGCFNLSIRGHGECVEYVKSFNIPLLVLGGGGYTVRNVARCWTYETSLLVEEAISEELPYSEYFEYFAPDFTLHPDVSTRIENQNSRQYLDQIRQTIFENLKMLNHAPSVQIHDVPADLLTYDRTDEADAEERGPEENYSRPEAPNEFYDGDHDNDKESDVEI
Chain of HDAC3 (Q9Y618 395-489 partner): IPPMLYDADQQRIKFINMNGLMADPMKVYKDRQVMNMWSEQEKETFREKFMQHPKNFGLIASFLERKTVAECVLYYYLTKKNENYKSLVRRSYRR
Description: as §8, §9

[4] = test system: U266 (multiple myeloma) cells; assay: CellTiter-Blue cell viability assay, U266; format: cell-based; settings: Homo sapiens, U-266; 72 hours of treatment
Description: as §5, §6, §7

[5] = test system: MDA-MB-231 (breast adenocarcinoma) cells; assay: CellTiter-Blue cell viability assay, MDA-MB-231; format: cell-based; settings: Homo sapiens, 72 hours of treatment
Description: as §5, §6, §7

[6] = test system: AMO-1 (plasmacytoma) cells; assay: CellTiter-Blue cell viability assay, AMO-1; format: cell-based; settings: Homo sapiens, AMO1; 72 hours of treatment
Description: as §5, §6, §7

[7] = Table 3, read-out: IC50 (nM) for inhibition of HDAC6
[8] = Table 4 selectivity profiling, read-out: IC50 (nM) HDAC6

C[C@@H]1C[C@H]2[C@@H]3CCC4=CC(=O)C=C[C@]4(C)[C@@]3(F)[C@@H](O)C[C@]2(C)[C@@]1(O)C(=O)CO [DEX, dexamethasone, reference compound]
% apoptosis OPM-2 ([1]; 1 μM DEX alone): 35%
% apoptosis U266 ([2]; 1 μM DEX alone): 42%

CC(C)c1ccc(-c2nc3cc(C(=O)NO)ccc3o2)cc1 [Example 1, N-Hydroxy-2-[4-(1-methylethyl)phenyl]-1,3-benzoxazole-5-carboxamide]
IC50 (PaCa2 (pancreatic) cells): 0.98 µM
IC50 (HDAC1): 4000 nM
IC50 [3]: > 20 µM
IC50 (HDAC2): 13000 nM
IC50 (HDAC6; [7]): 26 nM
IC50 (HDAC6; [8]): 26 nM
IC50 (HDAC8): 1200 nM
% apoptosis OPM-2 ([1]; 1 μM Ex. 1 alone): 3%
% apoptosis OPM-2 ([1]; 2.5 μM Ex. 1 alone): 37%
% apoptosis OPM-2 ([1]; 5 μM Ex. 1 alone): 38%
% apoptosis OPM-2 ([1]; 10 μM Ex. 1 alone): 59%
IC50 (HDAC3): 1700 nM
% apoptosis U266 ([2]; 1 μM Ex. 1 alone): 30%
% apoptosis U266 ([2]; 2.5 μM Ex. 1 alone): 59%
% apoptosis U266 ([2]; 5 μM Ex. 1 alone): 43%
% apoptosis U266 ([2]; 10 μM Ex. 1 alone): 88%
IC50 [4]: 0.62 µM
IC50 [5]: 0.65 µM
IC50 [6]: 0.39 µM

CC(C)c1ccc(-c2cc3cc(C(=O)NO)ccc3s2)cc1 [Example 89, N-Hydroxy-2-[4-(1-methylethyl)phenyl]-1-benzothiophene-5-carboxamide]
IC50 (PaCa2 (pancreatic) cells): 0.68 µM
IC50 (HDAC1): 100000 nM
IC50 [3]: > 20 µM
IC50 (HDAC2): 90000 nM
IC50 (HDAC6; [7]): 55 nM
IC50 (HDAC6; [8]): 26 nM
IC50 (HDAC8): > 2000 nM
IC50 (HDAC3): 90000 nM
IC50 [4]: 0.43 µM
IC50 [5]: 0.81 µM
IC50 [6]: 0.44 µM
